According to patent US10905688B2, “Combinations comprising substituted imidazo[1,5-α]pyrazinones as PDE1 inhibitors” (H. Lundbeck A/S, priority 2016, dated 2021):

How the values were obtained:
Format in all cases: biochemical
PDE9 = PDE9 (Homo sapiens (Human), UniProt O76083); experiment: PDE9 inhibition assay, SPA with 3H-cAMP
Method: A PDE9 assay may for example, be performed as follows: The assay is performed in 60 μL samples containing a fixed amount of the relevant PDE enzyme (sufficient to convert 20-25% of the cyclic nucleotide substrate), a buffer (50 mM HEPES pH 7.6; 10 mM MgCl2; 0.02% Tween20), 0.1 mg/mi BSA, 225 pCi of ^3H-labelled cyclic nucleotide substrate, tritium labeled cAMP to a final concentration of 5 nM and varying amounts of inhibitors. Reactions are initiated by addition of the cyclic nucleotide substrate, and reactions are allowed to proceed for one hr at room temperature before being terminated through mixing with 15 μL 8 mg/mL yttrium silicate SPA beads (Amersham). The beads are allowed to settle for one hr in the dark before the plates are counted in a Wallac 1450 Microbeta counter.
In the context of the present invention the assay was performed in 60 μL assay buffer (50 mM HEPES pH 7.6; 10 mM MgCl2; 0.02% Tween20) containing enough PDE9 to convert 20-25% of 10 nM ^3H-cAMP and varying amounts of inhibitors. Following a 1 hr incubation the reactions were terminated by addition of 15 μL 8 mg/mL yttrium silicate SPA beads (Amersham). The beads were allowed to settle for one hr in the dark before the plates were counted in a Wallac 1450 Microbeta counter.

PDE1C = PDE1C (Homo sapiens (Human), UniProt Q14123); experiment: PDE1 inhibition assay (PDE1C), SPA with tritium labelled cAMP
Method: (§1) Reactions were initiated by addition of the cyclic nucleotide substrate, and reactions were allowed to proceed for 1 h at room temperature before being terminated through mixing with 20 μL (0.2 mg) yttrium silicate SPA beads (PerkinElmer). The beads were allowed to settle for 1 h in the dark before the plates were counted in a Wallac 1450 Microbeta counter.

PDE1A = PDE1A (Homo sapiens (Human), UniProt P54750); experiment: PDE1 inhibition assay (PDE1A), SPA with tritium labelled cAMP; conditions: for inhibition at 2 µM: read-out: PDE1A, % inhibition at 2 μM
Method: Reactions were initiated by addition of the cyclic nucleotide substrate, and reactions were allowed to proceed for 1 h at room temperature before being terminated through mixing with 20 μL (0.2 mg) yttrium silicate SPA beads (PerkinElmer).

PDE1B = PDE1B (Homo sapiens (Human), UniProt Q01064); experiment: PDE1 inhibition assay (PDE1B), SPA with tritium labelled cAMP
Method: as §1

PDE9, sequence (O76083 whole entry): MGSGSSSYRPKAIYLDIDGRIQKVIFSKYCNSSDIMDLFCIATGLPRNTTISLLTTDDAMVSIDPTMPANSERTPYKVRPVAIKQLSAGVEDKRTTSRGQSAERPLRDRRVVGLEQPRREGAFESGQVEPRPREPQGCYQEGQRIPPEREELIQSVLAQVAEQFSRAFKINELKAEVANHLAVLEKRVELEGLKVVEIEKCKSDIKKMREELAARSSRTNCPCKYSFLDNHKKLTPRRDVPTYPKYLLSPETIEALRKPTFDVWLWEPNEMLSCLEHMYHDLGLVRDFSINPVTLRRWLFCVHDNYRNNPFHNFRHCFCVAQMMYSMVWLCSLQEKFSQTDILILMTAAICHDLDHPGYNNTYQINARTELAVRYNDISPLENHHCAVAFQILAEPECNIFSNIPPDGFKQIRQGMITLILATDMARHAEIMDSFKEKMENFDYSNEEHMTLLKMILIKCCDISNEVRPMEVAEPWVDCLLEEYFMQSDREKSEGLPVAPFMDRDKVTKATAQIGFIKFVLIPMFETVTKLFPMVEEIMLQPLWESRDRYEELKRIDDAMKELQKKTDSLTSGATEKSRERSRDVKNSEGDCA
PDE1B, sequence (Q01064 whole entry): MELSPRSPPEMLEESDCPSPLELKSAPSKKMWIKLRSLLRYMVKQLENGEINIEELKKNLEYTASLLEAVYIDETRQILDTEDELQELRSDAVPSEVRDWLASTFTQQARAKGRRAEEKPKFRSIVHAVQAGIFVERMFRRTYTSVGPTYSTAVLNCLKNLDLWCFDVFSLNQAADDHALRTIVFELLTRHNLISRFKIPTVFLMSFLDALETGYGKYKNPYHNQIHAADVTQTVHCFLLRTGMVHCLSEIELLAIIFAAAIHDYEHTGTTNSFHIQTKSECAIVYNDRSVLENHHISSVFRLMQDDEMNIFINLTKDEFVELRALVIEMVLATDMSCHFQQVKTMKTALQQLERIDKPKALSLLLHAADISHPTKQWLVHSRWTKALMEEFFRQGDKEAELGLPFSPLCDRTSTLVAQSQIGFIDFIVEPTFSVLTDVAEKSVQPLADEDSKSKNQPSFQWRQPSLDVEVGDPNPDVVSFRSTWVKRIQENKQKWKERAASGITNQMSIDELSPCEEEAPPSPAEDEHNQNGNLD
PDE1C, sequence (Q14123 whole entry): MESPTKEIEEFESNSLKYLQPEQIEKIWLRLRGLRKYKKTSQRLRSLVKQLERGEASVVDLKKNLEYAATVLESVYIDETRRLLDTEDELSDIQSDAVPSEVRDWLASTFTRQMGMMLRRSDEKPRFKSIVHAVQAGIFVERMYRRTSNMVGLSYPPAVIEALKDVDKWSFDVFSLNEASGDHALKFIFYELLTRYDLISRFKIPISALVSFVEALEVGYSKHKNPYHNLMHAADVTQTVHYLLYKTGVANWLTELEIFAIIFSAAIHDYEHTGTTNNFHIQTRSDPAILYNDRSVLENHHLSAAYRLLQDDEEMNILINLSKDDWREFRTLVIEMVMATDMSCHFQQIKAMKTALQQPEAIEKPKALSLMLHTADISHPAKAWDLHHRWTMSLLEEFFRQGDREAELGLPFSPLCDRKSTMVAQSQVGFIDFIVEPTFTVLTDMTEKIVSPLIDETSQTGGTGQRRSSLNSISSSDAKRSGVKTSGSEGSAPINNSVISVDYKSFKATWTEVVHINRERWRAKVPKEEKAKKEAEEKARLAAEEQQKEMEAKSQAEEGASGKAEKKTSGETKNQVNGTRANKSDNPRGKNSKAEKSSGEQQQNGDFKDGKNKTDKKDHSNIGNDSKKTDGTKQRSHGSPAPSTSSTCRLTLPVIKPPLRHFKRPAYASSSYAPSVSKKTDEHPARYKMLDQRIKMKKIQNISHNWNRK
PDE1A, sequence (P54750 whole entry): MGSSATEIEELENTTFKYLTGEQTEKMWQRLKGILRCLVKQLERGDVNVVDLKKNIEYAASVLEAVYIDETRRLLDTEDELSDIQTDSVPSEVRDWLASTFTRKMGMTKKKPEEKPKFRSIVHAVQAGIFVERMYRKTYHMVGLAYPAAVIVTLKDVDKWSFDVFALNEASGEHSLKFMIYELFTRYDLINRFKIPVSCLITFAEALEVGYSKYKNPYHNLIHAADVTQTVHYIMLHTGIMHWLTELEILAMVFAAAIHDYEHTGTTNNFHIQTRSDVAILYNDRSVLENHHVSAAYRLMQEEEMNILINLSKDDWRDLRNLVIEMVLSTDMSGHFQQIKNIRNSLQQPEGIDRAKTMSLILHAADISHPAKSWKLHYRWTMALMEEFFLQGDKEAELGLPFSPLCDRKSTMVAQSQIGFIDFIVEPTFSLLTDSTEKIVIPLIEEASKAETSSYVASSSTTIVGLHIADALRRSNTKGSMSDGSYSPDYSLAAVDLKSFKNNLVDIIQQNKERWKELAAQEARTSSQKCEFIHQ

SMILES | % inhibition of PDE9 at 10 microM (PDE9) [%] | IC50 (PDE1C) [µM] | IC50 (PDE1B) [µM] | other results
Cc1cn2c([C@@H]3C[C@@H]3F)ncc2c(=O)n1Cc1cccc(F)c1 (single isomer, unassigned; isomer 1) [37, isomer 1] | −2 | 0.345 |  | 
Cc1cn2c([C@@H]3C[C@H]3F)ncc2c(=O)n1Cc1cccc(F)c1 (single isomer, unassigned; isomer 1) [38, isomer 1] | −1 |  |  | 
Cc1cn2c([C@H]3C[C@@H]3F)ncc2c(=O)n1Cc1cccc(F)c1 (single isomer, unassigned; isomer 2) [37, isomer 2] | 13 | 0.055 |  | 
COc1ccc(Cn2c(C)cn3c([C@H]4CCO[C@@H]4C)ncc3c2=O)cc1 (single isomer, unassigned; isomer 3) [55, isomer 3] |  |  | 0.003 | 
Cc1cn2c(C3CCOCC3)ncc2c(=O)n1Cc1cccc(C#N)c1 [Example 45, 3-((6-methyl-8-oxo-3-(tetrahydro-2H-pyran-4-yl)imidazo[1,5-a]pyrazin-7(8H)-yl)methyl)benzonitrile] |  |  |  | inhibition at 2 µM (PDE1A): 64%
CCc1ccccc1Cn1c(C)cn2c(C3CCOCC3)ncc2c1=O [Example 49, 7-(2-ethylbenzyl)-6-methyl-3-(tetrahydro-2H-pyran-4-yl)imidazo[1,5-a]pyrazin-8(7H)-one] |  |  |  | inhibition at 2 µM (PDE1A): 44%

More lines, main results first:

% inhibition of PDE9 at 10 microM (PDE9) [%] | IC50 (PDE1C) [µM] | IC50 (PDE1B) [µM] | SMILES | other results
9 | 0.027 | 0.134 | Cc1cn2c(N3CCC4OCC[C@H]43)ncc2c(=O)n1Cc1cccc(F)c1 (single isomer, unassigned; isomer 1) [99, isomer 1] | IC50 (PDE1A): 0.241 µM
2 | 0.153 |  | Cc1cn2c([C@H]3C[C@H]3F)ncc2c(=O)n1Cc1cccc(F)c1 (single isomer, unassigned; isomer 2) [38, isomer 2] | 
6 | 0.119 | 0.76 | Cc1cn2c(N3CCC4OCC[C@@H]43)ncc2c(=O)n1Cc1cccc(F)c1 (single isomer, unassigned; isomer 2) [99, isomer 2] | PDE1A, % inhibition at 10 μM (PDE1A; at 10 μM): 47%
